Assay: Food effect on pharmacokinetics, 200 mg as 25 mg tablets, fed vs fasted, healthy volunteers
Type: in vivo, human
Description: This example describes a clinical study for establishing, in healthy volunteers, the effect of a high fat, high caloric meal on the PK profile of Compound I, as compared to administration of the drug in the fasted state. The study also was intended to determine the safety and tolerability after a single oral dose of Compound I in the fed and fasted state in healthy volunteers. The measurements of PK, PD, and other clinical parameters were done as described in Example 1 above.
This study was an open-label, randomized, two-period cross-over study in healthy volunteers aged 18-55 years. Subjects were screened up to 28 days before the first treatment period. Subjects were admitted to the clinical site on Day −1 (the day before dosing) of Period 1. Approximately half of the subjects randomly received a single dose of Compound I on Day 1 of the first treatment period after the ingestion of a high fat, high caloric breakfast, and the remainder were dosed in the fasted state. Any subject with a predose resting HR ≥95 beats per minute (bpm) was considered ineligible and was not treated. Any subjects with an acute gastrointestinal disorder which could impact drug/food absorption (e.g., vomiting, diarrhea) were rescheduled. Subjects were confined to the clinic until Day 4, and discharged after the 72-hour postdose PK and laboratory samples and vital signs were obtained. After a washout between dosing from 7 to 10 days (or, after consultation with the Investigator, up to 21 days after initial dosing if the subject was unable to attend within the 7 to 10-day window), the subject was admitted for Period 2. The sequence of fed/fasted versus fasted/fed periods was randomized. Subjects returned after the second treatment period for a safety follow-up visit on Day 7 (+1 day).
In both treatment periods, Compound I was administered with 240 mL of water. In the fasted state, the subjects fasted for 10 hours before and for 4 hours after the administration of Compound I. Water could have been ingested up to 1 hour before and after 1 hour post dosing. In the fed state, the subjects fasted for 10 hours before and for 4 hours after the ingestion of the meal, but could have ingested water up to 1 hour before and 1 hour after dosing. In the fed state, the subjects started ingesting the high fat, high caloric meal within 30 minutes prior to Compound I administration and finished the meal within 30 minutes. The meal contained approximately 800 to 1000 calories with about 50% of the calories from fat. The meal consisted of approximately 150 calories from protein, 250 calories from carbohydrate, and 500-600 calories from fat. An example of the meal was a breakfast consisting of two eggs fried in butter, two strips of bacon, two slices of buttered toast, 4 ounces of hash brown potatoes, and 8 ounces of whole milk.
Each subject received two oral doses of 200 mg of Compound I formulated as 25 mg tablets (8 tablets) in a randomized, cross-over fashion, once in the fasted state and the other time after the ingestion of a high fat, high caloric breakfast. There was a washout of between 7 and 21 days between the administrations of the two doses. The Compound I drug substance was a crystalline, free-base, synthetic molecule with a molecular weight of 435.4.
Plasma drug concentrations were measured as described in Example 1 above. Blood samples to measure Compound I plasma concentration were collected at various time points, including on Day 1 predose (1 hour prior to dosing) and at 1 (±5 min), 2 (±5 min), 3 (±5 min), 4 (═10 min), 5 (±10 min), 6 (±10 min), 9 (±20 min), 12 (±20 min), 18 (±30 min), 24 (±30 min), 36 (±30 min), 48 (±30 min), and 72 (±30 min) hours postdose on both treatment periods.
To assess the effect of food on the PK of Compound I, the two one-sided t-test procedure was used to construct 90% CI around the geometric mean ratios (fed/fasted) of plasma AUCinf, AUClast, and Cmax. […]

[1] = 200 mg, subjects who completed both periods (N = 9)
[2] = 200 mg, subjects who completed both fasted and fed periods (N = 9)
[3] = single oral 200 mg, Fasted (N = 10)
[4] = single oral 200 mg, Fed (N = 10)

Cn1cc(S(=O)(=O)[C@@](C)(F)C2CCN(C(=O)Nc3ccon3)CC2)c(C(F)F)n1 [Compound I, (R)-4-(1-((3-(difluoromethyl)-1-methyl-1H-pyrazol-4-yl)sulfonyl)-1-fluoroethyl)-N-(isoxazol-3-yl) piperidine-1-carboxamide]
exposure (Cmax) higher in fed vs fasted state (200 mg): ~60%
AUClast, Fasted LSGM (200 mg, N = 11): 57400 ng·h/mL
Cmax, Fasted LSGM (200 mg, N = 11): 2300 ng/mL
Cmax, Fed LSGM (200 mg, N = 11): 3640 ng/mL
AUCinf, Geometric Mean Ratio - Fed/Fasted (200 mg, N = 11, 90% CI 130.30-182.67): 154.28 % of Reference
AUClast, Geometric Mean Ratio - Fed/Fasted (200 mg, N = 11, 90% CI 131.11-180.92): 154.02 % of Reference
Cmax, Geometric Mean Ratio - Fed/Fasted (200 mg, N = 11, 90% CI 137.11-182.33): 158.11 % of Reference
Median (range) Tmax (200 mg, fed state): 5.5 h
AUC0-t geometric mean ratio (fed/fasted) [1]: 153.20%
AUCinf geometric mean ratio (fed/fasted) [1]: 153.63%
Cmax geometric mean ratio (fed/fasted) [1]: 156.43%
AUCinf, Geometric Mean Ratio - Fed/Fasted [2]: 153.63 % of Reference
AUClast, Fasted LSGM [2]: 59000 ng·h/mL
AUClast, Geometric Mean Ratio - Fed/Fasted [2]: 153.20 % of Reference
Cmax, Fasted LSGM [2]: 2370 ng/mL
Cmax, Fed LSGM [2]: 3700 ng/mL
Cmax, Geometric Mean Ratio - Fed/Fasted [2]: 156.43 % of Reference
MRT, Mean [3]: 22.55 h
MRT, Median [3]: 23.86 h
T1/2, z, Mean [3]: 14.28 h
AUCinf, Median [4]: 93950 ng·h/mL
AUClast, Geometric Mean [4]: 88400 ng·h/mL
AUClast, Median [4]: 89310 ng·h/mL
Cmax Geometric Mean [4]: 3644 ng/mL
T1/2, z, Geometric Mean [4]: 13.56 h
